Experiment [1] relates to XBP1s. The experiment is described as follows: XBP1s protein levels in Ad-XBP1s-infected MEFs (western blot). The format is cell-based, mouse. As to the method: (§1) MEF cells were from American Type Tissue Collection (ATCC). These cells were grown in Dulbecco's Modified Eagel Medium (DMEM) supplemented with 10% fetal bovine serum (FBS), 10 U/ml penicillin and 1 μg/ml streptomycin at 37° C. and 5% CO2. Fao cells were maintained in RPMI 1640 medium (Invitrogen) supplemented with 10% fetal bovine serum (FBS), 10 U/ml penicillin and 1 μg/ml streptomycin.
(§2) Adenovirus expressing XBP1s T48A, XBP1s S61A, XBP1s T48A/S61A and MKK6Glu were produced with ViraPower Adenoviral Expression System (Invitrogen) according to manufacturer's instruction. Briefly, pAD-XBP1s T48A, pAD-XBP1s S61A, pAd-XBP1s T48A/S61A and pAd-MKK6Glu were linearized by restriction endonuclease digestion with PacI and transfected to 293A cells by Lipofectamine. The media was changed with fresh media every other day until the cytopathic effect was observed. When cytopathic effect reached to 80%, cells were collected by centrifugation. The pellet was resuspended in PBS and subjected to freezing and thawing cycles at −80° C. and 37° C. for 4 times. The supernatant containing the virus was prepared by centrifugation at 4,000 rpm for 20 min at room temperature. Ad-XBP s and Ad-Cre were generated as described previously (Ozcan, L., et al. (2009) Cell metabolism 9:35-51). For infection, cells were incubated with adenovirus in reduced volume of medium containing 1% FBS and antibiotics. Cells were gently rocked every 15 min for 1 h to increase efficiency of infection, and then fresh medium were added and cells were incubated for additional 15 h or 23 h.
Cells were lysed in lysis buffer (25 mM Tris-HCl, pH 7.4; 10 mM NaF; 10 mM Na4P207; 2 mM Na3VO4; 1 mM EGTA; 1 mM EDTA; 1% NP-40; 10 μg/ml Leupeptin; 10 μg/ml Aprotinin; 1 mM PMSF and 20 nM Okadaic acid). After 20 min-rotation at 4° C., cell lysates were centrifuged at 13,200 rpm for 20 min at 4° C. Supernatants were collected and protein concentration was quantified by using Protein Assay Kit (Bio-Rad). The concentrations of protein were normalized with lysis buffer to have equivalent amounts of protein and volume. Protein was denatured by boiling at 100° C. for 5 min in Laemmli buffer. The lysates were cooled to room temperature before loading for western blot analysis.
Western blot analysis was performed as previously described (Ozcan, L., et al. (2009) Cell metabolism 9:35-51). Samples from cell lysates or tissue lysates were resolved by SDS-PAGE and then transferred to polyvinylidene fluoride (PVDF) membrane. After 1 h blocking at room temperature using 10% blocking reagent (Roche), membrane was incubated overnight with primary antibody in Tris-buffered saline solution/Tween (TBST) containing 10% blocking reagent at 4° C. After the incubation, membrane was washed three times in TBST and incubated with secondary antibody for 1 h at room temperature. After three-time washing in TBST, membrane was developed using a chemiluminescence assay system (Roche) and exposed to Kodak films. Relative protein levels were quantified by Image J program.

Experiment [2] concerns XBP1s. The experiment is described as follows: FBS-induced XBP1s nuclear translocation in starved cells. The format is cell-based, mouse. The conditions noted are these: 16 h starved cells, inhibitor 10 μM before 10% FBS. The procedure: XBP1s is generated in the liver when an animal is refed after a fasting period (Park, S. W., et al. (2010) Nature Med 16:429-437), likely mainly due to increased metabolic overloading. To create a metabolic overloading model in cells, following a 16 h starvation in medium without fetal bovine serum (FBS), cells were reincubated for 15, 30 and 60 minutes with medium containing 10% FBS, following which total and nuclear proteins or mRNA were isolated and used to analyze various parameters, including p38 MAPK activation, XBP1s nuclear migration, and splicing. When the cells were starved, then stimulated with medium containing 10% FBS, there was a robust increase in XBP1s splicing and nuclear translocation, as well as in activation of p38 MAPK (FIG. 10A). […] The same experiment was then repeated in p38α^−/− and MKK3,6^−/− cells. […] Moreover, FBS-induced XBP i s nuclear translocation was severely impaired in the MKK3,6^−/− cells (FIG. 10C).

Experiment [3] has as its system p38 MAPK. The experiment is described as follows: Fasting/re-feeding of lean mice treated with p38 MAPK inhibitor. The format is in vivo, mouse. Conditions: 2 mg/kg/day intraperitoneally three days. The procedure:
For liver tissue, a kit from Thermo Scientific (Rockford, Ill.) was used according to the manufacturer's instruction. Liver tissues were cut into small pieces, washed with PBS, and separated from PBS by centrifugation at 500×g for 5 minutes. Collected tissues were resuspended by company-supplied CER I buffer and homogenized with a Dounce homogenizer. Homogenized tissues were vortexed and incubated on ice for 10 minutes. Following CER II buffer addition, tissues were vortexed for 5 seconds, incubated for 1 minute on ice, vortexed again, and then centrifuged for 5 minutes at maximum speed in a microcentrifuge. The supernatant (cytoplasmic fraction) was saved for later analysis. The pellets were resuspended with supplied NER buffer and undergone a series of multiple vortexing (15 seconds) and incubation on ice (10 minutes) for a total of 40 minutes. After 10-minute centrifugation, the supernatant (nuclear fraction) was collected and analyzed with immunoblotting.
Tissues were homogenized with a bench-top homogenizer (Polytron, PT2100) in ice-cold tissue lysis buffer (25 mM Tris-HCl, pH 7.4; 100 mM NaF; 50 mM Na4P207; 10 mM Na3VO4; 10 mM EGTA; 10 mM EDTA; 1% NP-40; 10 μg/ml Leupeptin; 10 μg/ml Aprotinin; 2 mM PMSF and 20 nM Okadaic acid). After homogenization, lysates were rotated for 1 h at 4° C. and then subjected to centrifugation at 13,200 rpm for 20 min at 4° C. The lipid layer was removed and the supernatant was transferred into Eppendorf tubes for centrifugation. This process was repeated for 2 times to get rid of lipid completely. Protein concentration was quantified by using Protein Assay Kit (Bio-Rad). Equivalent protein concentration in each sample was prepared and boiled at 100° C. for 5 min in Laemmli buffer. The lysates were cooled to room temperature before loading for western blot analysis.

Experiment [4] has as its system XBP1s. Description: Co-expression of kinase constructs with XBP1s in transfected cells. It counts as cell-based. Conditions: p38 MAPK inhibitor 10 μM. The text has this:
To unravel the molecular mechanisms underlying the above observations, several different approaches were taken to explore whether activation of JNK, which is one of the most dominant signaling elements in SAPK signaling, affects XBP1s levels and nuclear translocation. […] It is known that MAPK kinase kinase (MKK) 4 and 7 are upstream kinases responsible for JNK activation (Tournier, C., et al. (2001) Genes Dev 15:1419-1426; Brancho, D., et al. (2003) Genes Dev 17:1969-1978) and anisomycin or TNFα cannot activate JNK in MKK4 and 7 double knock out cells (MKK4,7^−/−) (Tournier, C., et al. (2001) Genes Dev 15:1419-1426; Schaeffer, H. J. & Weber, M. J. (1999) Mol Cell Biol 19:2435-2444). In order to determine whether XBP1s can be regulated by anisomycin treatment in MKK4,7^−/− cells, these cells, along with their controls, were treated with anisomycin after XBP is expression. […] Furthermore, the experiments were repeated in JNK1,2^−/− and MKK4,7^−/− cells with TNFα. […] Finally, an MKK7-JNK1 fusion protein, previously shown to be a specific activator of JNK (Lei, K., et al. (2002) Mol Cell Biol 22:4929-4942), was used to investigate whether activation of JNK alone can have effect on XBP1s.
A constitutively active form of MKK6 (MKK6Glu), one of the upstream kinases of p38 MAPK, was previously generated by mutation of Ser207 and […] to glutamate. […]

For experiment [5], the system named is XBP1s. The experiment is described as follows: XBP1s levels in Ad-XBP1s-infected Fao cells. The format is cell-based. The conditions noted are these: Ad-XBP1s-infected Fao cells (rat hepatoma). As to the method: as §1
as §2, with “Ad-XBP s and Ad-Cre were generated as described previously (Ozcan, L., et al. (2009) Cell metabolism 9:35-51). For infection, cells were incubated with adenovirus in reduced volume of medium containing 1% FBS and antibiotics. Cells were gently rocked every 15 min for 1 h to increase efficiency of infection, and then fresh medium were added and cells were incubated for additional 15 h or 23 h.” left out
Western blot analysis was performed as previously described (Ozcan, L., et al. (2009) Cell metabolism 9:35-51). […] Relative protein levels were quantified by Image J program.

The subject of experiment [6] is XBP1s. The experiment is described as follows: Cytoplasmic and nuclear XBP1s protein in cells. The format is cell-based, mouse. The conditions noted are these: mutant XBP1s expressed in cells, anisomycin 25 ng/ml, vs WT. The procedure: Cytoplasmic and nuclear protein fractions were extracted from cells by using nuclear protein extraction kit from Active Motif (Carlsbad, Calif.). Cells were maintained in 10 cm tissue culture dishes for nuclear/cytoplasmic extraction. After removal of the media, cells were washed with ice-cold phosphate buffered saline (PBS) containing phosphatase inhibitors. Subsequently, 3 ml of ice-cold PBS with phosphatase inhibitors was added and then cells were scrapped out of the dish. Collected cells were separated from PBS by centrifugation for 5 minutes at 500 rpm and resuspended with 500 μl of 1× hypotonic buffer. After 15-minute incubation in hypotonic buffer on ice, 25 μl of supplied detergent was added and cells were vortexed 10 seconds. Cells were centrifuged for 30 seconds at 14,000×g and supernatant (cytoplasmic fraction) was saved for further analysis. Remaining pellet, which contains nuclei, were resuspended with 50 μl of provided complete lysis buffer with 1 mM dithiothreitol (DTT), vortexed 10 seconds, and incubated for 30 minutes on ice. After 30-second vortexing and 10-minute centrifugation at 14,000×g, the supernatant was collected and analyzed as nuclear fraction.

With `CCOc1nc(NC(=O)Cc2cc(OC)ccc2OC)cc(N)c1C#N` [JNK inhibitor VIII], the “effect on anisomycin-mediated upregulation of XBP1s protein levels” value in experiment [1] (JNK inhibitor 10 μM 30 minutes, then anisomycin 25 ng/ml two hours) was “no effect”.
`C[S+]([O-])c1ccc(-c2nc(-c3ccncc3)c(-c3ccc(F)cc3)[nH]2)cc1` (stereo not drawn) [SB203580]: in experiment [1] (SB203580 10 μM 30 minutes, then anisomycin 25 ng/ml two hours), the “anisomycin-induced increase in XBP1s levels” value is “completely abolished”. In addition, in experiment [2], the “FBS-induced XBP1s nuclear translocation” value is reported as “completely eliminated XBP1s nuclear translocation” and the XBP1s splicing result is on record as “without altering XBP1s splicing”. For the same molecule, in experiment [3], the “GRP78 expression increase in liver after re-feeding” value is on record as “but not in the inhibitor-treated group” and the “XBP1s mRNA levels in the liver of re-fed mice” value is reported as “significantly increased”. The ATF2 phosphorylation entry in experiment [3] (lean C57BL6 mice) is “dramatic reduction in phosphorylation”. Moreover, in experiment [3] (lean C57BL6 mice, starved 24 hours, refed one hour), the “XBP1s nuclear translocation in the liver after re-feeding” value was “completely absent”. Besides, in experiment [4], the “effect of MKK6Glu on XBP1s” value was “blocked the effect of MKK6Glu on XBP1s”.
With TNFα, the XBP1s protein levels result was “markedly increased XBP1s protein levels” in experiment [1] (Ad-XBP1s-infected MEFs, increasing doses, two hours) and “significant increase in XBP1s levels” in experiment [1] (JNK1,2−/− cells). Moreover, the XBP1s levels entry in experiment [1] (MKK4,7−/− cells) is recorded as “significant increase in XBP1s levels”; in experiment [5] it was “dramatically upregulating their XBP1s levels”.

B1: T48A: mutant XBP1s with Thr48 residue mutated to alanine (protein)
chain: MVVVAAAPSAATAAPKVLLLSGQPASGGRALPLMVPGPRAAGSEASGAPQARKRQRLTHLSPEEKALRRKLKNRVAAQTARDRKKARMSELEQQVVDLEEENHKLQLENQLLREKTHGLVVENQELRTRLGMDTLDPDEVPEVEAKGSGVRLVAGSAESAAGAGPVVTSPEHLPMDSDTVASSDSESDILLGILDKLDPVMFFKCPSPESASLEELPEVYPEGPSSLPASLSLSVGTSSAKLEAINELIRFDHVYTKPLVLEIPSETESQTNVVVKIEEAPLSSSEEDHPEFIVSVKKEPLEDDFIPELGISNLLSSSHCLRPPSCLLDAHSDCGYEGSPSPFSDMSSPLGTDHSWEDTFANELFPQLISV
Regarding B1, the “decrease of XBP1s nuclear translocation” value in experiment [6] is listed as “about 49%”.

B2: S61A: amino acid substitution mutant XBP1s at Ser61 (protein)
chain: MVVVAAAPSAATAAPKVLLLSGQPASGGRALPLMVPGPRAAGSEASGTPQARKRQRLTHLAPEEKALRRKLKNRVAAQTARDRKKARMSELEQQVVDLEEENHKLQLENQLLREKTHGLVVENQELRTRLGMDTLDPDEVPEVEAKGSGVRLVAGSAESAAGAGPVVTSPEHLPMDSDTVASSDSESDILLGILDKLDPVMFFKCPSPESASLEELPEVYPEGPSSLPASLSLSVGTSSAKLEAINELIRFDHVYTKPLVLEIPSETESQTNVVVKIEEAPLSSSEEDHPEFIVSVKKEPLEDDFIPELGISNLLSSSHCLRPPSCLLDAHSDCGYEGSPSPFSDMSSPLGTDHSWEDTFANELFPQLISV
With B2, in experiment [6], the “decrease of XBP1s nuclear translocation” value is recorded as “about 79%”.

(Values after patent US10226514B2, “Methods and compositions for reducing blood glucose levels” (The Children's Medical Center Corporation, priority 2011, dated 2019).)
